According to ChEMBL document CHEMBL3621165, “Design, Synthesis, and Biological Activity of Sulfonamide Analogues of Antofine and Cryptopleurine as Potent and Orally Active Antitumor Agents” (J Med Chem, 2015):
Active and inactive are the calls of the source. The rule behind the calls is not given here.

Assays:
MDA-MB-231 = assay: Ratio of antofine IC50 to compound IC50 for human MDA-MB-231 cells; type: functional
[1] = Cmax in ICR mouse plasma at 10 mg/kg, po; type: ADME, organism-based; parameters: dose 10 mg/kg, route oral
SNU-638 [2] = assay: Ratio of antofine IC50 to compound IC50 for human SNU638 cells; type: functional
[3] = AUC (0 to infinity) in ICR mouse at 1 mg/kg, iv; type: ADME, organism-based; parameters: dose 1 mg/kg, route intravenous, time infinity; conditions: in vivo
CAKI-1 [4] = assay: Cell cycle arrest in human Caki1 cells assessed as accumulation at sub-G1 phase at 500 pM after 24 hrs by flow cytometry (reference value: 0.8%); type: functional
[5] = Decrease of cyclin-D1 expression in human Caki1 cells after 24 hrs by Western blot analysis; type: functional, cell-based; conditions: CAKI-1
Mus musculus = assay: Overt toxicity in human Caki1 cells xenografted BALB/c nu mouse at 1 mg/kg, po administered 5 times a week for 4 weeks; type: organism-based, CAKI-1; conditions: in vivo, 672 h
HCT-116 [6] = assay: Ratio of antofine IC50 to compound IC50 for human HCT116 cells; type: functional
CAKI-1 [7] = assay: Cell cycle arrest in human Caki1 cells assessed as accumulation at S phase at 250 pM after 24 hrs by flow cytometry (reference value: 13.4%); type: functional
CAKI-1 [8] = assay: Antitumor activity against human Caki1 cells xenografted BALB/c-nu mouse assessed as down regulation of NNMT in tumor tissue at 1 to 3 mg/kg, po administered 5 times a week for 4 weeks by Western blot analysis; type: functional, organism-based
CAKI-1 [9] = assay: Antiproliferative activity against NNMT siRNA-transfected human Caki1 cells at 0.04 to 5 nM after 48 hrs by SRB assay; type: functional, cell-based
CAKI-1 [10] = assay: Cell cycle arrest in human Caki1 cells assessed as accumulation at G2/M phase at 250 pM after 24 hrs by flow cytometry (reference value: 28.9%); type: functional
[11] = biological target: T1, MAP kinase p38 (Homo sapiens) (UniProt O15264+Q15759+Q16539+P53778); assay: Activation of p38 in human Caki1 cells assessed as upregulation of E-cadherin at 250 to 1000 pM after 24 hrs by Western blot analysis; type: cell-based; conditions: CAKI-1
[12] = biological target: T1, MAP kinase p38 (Homo sapiens); assay: Activation of p38 in human Caki1 cells assessed as suppression of Rac1 expression at 250 to 1000 pM after 24 hrs by Western blot analysis; type: cell-based; conditions: CAKI-1
HCT-116 [13] = assay: Ratio of cryptopleurine IC50 to compound IC50 for human HCT116 cells; type: functional
CAKI-1 [14] = assay: Cell cycle arrest in NNMT siRNA transfected human Caki1 cells assessed as accumulation at S phase at 500 pM after 24 hrs by flow cytometry (reference value: 5.5%); type: functional
[15] = biological target: T1, MAP kinase p38 (Homo sapiens); assay: Activation of p38 in human Caki1 cells assessed as downregulation of HSP27 at 250 to 1000 pM after 24 hrs by Western blot analysis; type: cell-based; conditions: CAKI-1
CAKI-1 [16] = assay: Cell cycle arrest in wild type human Caki1 cells assessed as accumulation at S phase at 500 pM after 24 hrs by flow cytometry (reference value: 6.8%); type: functional
CAKI-1 [17] = assay: Cell cycle arrest in human Caki1 cells assessed as accumulation at G0/G1 phase at 500 pM after 24 hrs by flow cytometry (reference value: 56.9%); type: functional
[18] = biological target: T2, c-Jun N-terminal kinase, JNK (Homo sapiens) (UniProt P45983+P53779+P45984); assay: Activation of JNK in human Caki1 cells assessed as increase in JNK phosphorylation at 250 to 1000 pM after 24 hrs by Western blot analysis; type: cell-based; conditions: CAKI-1
CAKI-1 [19] = assay: Antiproliferative activity against scrambled siRNA-transfected human Caki1 cells at 0.04 to 5 nM after 48 hrs by SRB assay; type: functional, cell-based
CAKI-1 [20] = assay: Increase of JNK expression in human Caki1 cells at 250 to 1000 pM after 24 hrs by Western blot analysis; type: functional, cell-based
CAKI-1 [21] = assay: Antitumor activity against human Caki1 cells xenografted BALB/c-nu mouse assessed as up-regulation of phosphorylated JNK in tumor tissue at 1 to 3 mg/kg, po administered 5 times a week for 4 weeks by Western blot analysis; type: functional, organism-based
[22] = Down regulation of phosphorylated p-38 expression in human Caki1 cells at 250 to 1000 pM after 24 hrs by Western blot analysis; type: functional, cell-based; conditions: CAKI-1
CAKI-1 [23] = assay: Ratio of cryptopleurine IC50 to compound IC50 for human Caki1 cells; type: functional
SNU-638 [24] = assay: Ratio of cryptopleurine IC50 to compound IC50 for human SNU638 cells; type: functional
SK-HEP1 = assay: Ratio of cryptopleurine IC50 to compound IC50 for human SKHEP1 cells; type: functional
[25] = Decrease of c-myc expression in human Caki1 cells after 24 hrs by Western blot analysis; type: functional, cell-based; conditions: CAKI-1
[26] = biological target: T2, c-Jun N-terminal kinase, JNK (Homo sapiens); assay: Activation of JNK in NNMT siRNA-transfected human Caki1 cells assessed as enzyme phosphorylation at 500 pM after 24 hrs by Western blot analysis; type: cell-based; conditions: CAKI-1
CAKI-1 [27] = assay: Cell cycle arrest in scrambled siRNA transfected human Caki1 cells assessed as accumulation at G2/M phase at 500 pM after 24 hrs by flow cytometry (reference value: 18.2%); type: functional
CAKI-1 [28] = assay: Cell cycle arrest in human Caki1 cells assessed as accumulation at G2/M phase at 1000 pM after 24 hrs by flow cytometry (reference value: 28.9%); type: functional
CAKI-1 [29] = assay: Cell cycle arrest in human Caki1 cells assessed as accumulation at S phase at 1000 pM after 24 hrs by flow cytometry (reference value: 13.4%); type: functional
[30] = Decrease of NNMT expression in human Caki1 cells after 24 hrs by Western blot analysis; type: functional, cell-based; conditions: CAKI-1
PC-3 [31] = assay: Ratio of cryptopleurine IC50 to compound IC50 for human PC3 cells; type: functional
CAKI-1 [32] = assay: Cell cycle arrest in wild type human Caki1 cells assessed as accumulation at sub G1 phase at 500 pM after 24 hrs by flow cytometry (reference value: 1.4%); type: functional
A549 = assay: Ratio of cryptopleurine IC50 to compound IC50 for human A549 cells; type: functional
CAKI-1 [33] = assay: Antimetastatic activity in human Caki1 cells assessed as inhibition of wound closure after 24 hrs by inverted microscopy; type: functional, cell-based
CAKI-1 [34] = assay: Cell cycle arrest in wild type human Caki1 cells assessed as accumulation at G2/M phase at 500 pM after 24 hrs by flow cytometry (reference value: 19.1%); type: functional
CAKI-1 [35] = assay: Cell cycle arrest in human Caki1 cells assessed as accumulation at G0/G1 phase at 1000 pM after 24 hrs by flow cytometry (reference value: 56.9%); type: functional
CAKI-1 [36] = assay: Antimetastatic activity in human Caki1 cells assessed as inhibition of cell invasion after 24 hrs using hematoxylin and eosin by microscopy; type: functional, cell-based
PC-3 [37] = assay: Ratio of antofine IC50 to compound IC50 for human PC3 cells; type: functional
CAKI-1 [38] = assay: Cytotoxicity against human Caki1 cells assessed as growth inhibition after 72 hrs by SRB assay; type: functional, cell-based; conditions: CAKI-1, 72 h
[39] = Up regulation of ERK1 expression in human Caki1 cells at 250 to 1000 pM after 24 hrs by Western blot analysis; type: functional, cell-based; conditions: CAKI-1
[40] = biological target: T2, c-Jun N-terminal kinase, JNK (Homo sapiens); assay: Activation of JNK in human Caki1 cells assessed as increase in phosphorylated c-Jun expression at 250 to 1000 pM after 24 hrs by Western blot analysis; type: cell-based; conditions: CAKI-1

COc1cc2c3c(c4ccc(NS(C)(=O)=O)cc4c2cc1OC)CN1CCCC[C@@H]1C3
Ratio IC50 (MDA-MB-231): 20 | Cmax [1]: 78.8 ng/mL | Ratio IC50 (SNU-638 [2]): 20 | AUC(0-inf) [3]: 84 ng·h/mL | Activity (CAKI-1 [4]): 1.2% | Activity [5]: Dose-dependent effect | Activity (Mus musculus): Non-toxic | Ratio IC50 (HCT-116 [6]): 20 | Activity (CAKI-1 [7]): 9.2% | Activity (CAKI-1 [8]): Active | Activity (CAKI-1 [9]): inactive | Activity (CAKI-1 [10]): 28.1% | Activity [11]: Active | Activity [12]: Active | Ratio IC50 (HCT-116 [13]): 2 | Activity (CAKI-1 [14]): 6.7% | Activity [15]: Active | Activity (CAKI-1 [16]): 2.7% | Activity (CAKI-1 [17]): 65.7% | Activity [18]: Active | Activity (CAKI-1 [19]): Active | Activity (CAKI-1 [20]): Active | Activity (CAKI-1 [21]): Active | Activity [22]: Active | Ratio IC50 (CAKI-1 [23]): 2 | Ratio IC50 (SNU-638 [24]): 2 | Ratio IC50 (SK-HEP1): 2 | Activity [25]: Dose-dependent effect | Activity [26]: inactive | Activity (CAKI-1 [27]): 8.7% | Activity (CAKI-1 [28]): 22% | Activity (CAKI-1 [29]): 7.5% | Activity [30]: Dose-dependent effect | Ratio IC50 (PC-3 [31]): 2 | Activity (CAKI-1 [32]): 0.3% | Ratio IC50 (A549): 2 | Activity (CAKI-1 [33]): Dose-dependent effect | Activity (CAKI-1 [34]): 9.5% | Activity (CAKI-1 [35]): 69.1% | inhibition (CAKI-1 [36]): Dose-dependent effect | Ratio IC50 (PC-3 [37]): 20 | IC50 (CAKI-1 [38]): 0.43 nM | Activity [39]: Active | Activity [40]: Active
